ChEMBL document CHEMBL1201862, “PubChem BioAssay data set” (2004)
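Tested at 5 concentrations; 48 h exposure; 96-well plates; endpoints linearly interpolated, else capped at highest concentration. GI50: concentration for 50% inhibition of growth.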 Activity calls are given as the source filed them. Cut-off read from the data, not from the text of the source: active = GI50 up to about 1.1 µM and inactive = higher.

Legend:
Experiment in all cases: DTP human tumour cell line panel, 48 h
RXF 393 = test system: RXF 393
SW-620 = test system: SW-620
A498 = test system: A498
SK-OV-3 = test system: SK-OV-3
OVCAR-4 = test system: OVCAR-4
M14 = test system: M14
XF498 = test system: XF498
OVCAR-5 = test system: OVCAR-5
SNB-19 = test system: SNB-19
Malme-3M = test system: Malme-3M
NCI-H23 = test system: NCI-H23
NCI-H460 = test system: NCI-H460
SF-295 = test system: SF-295
DMS-114 = test system: DMS-114
SF-268 = test system: SF-268
DLD-1 = test system: DLD-1
KM12 = test system: KM12
SN12C = test system: SN12C
SK-MEL-5 = test system: SK-MEL-5
UACC-257 = test system: UACC-257
OVCAR-8 = test system: OVCAR-8
LOX IMVI = test system: LOX IMVI
K562 = test system: K562
EKVX = test system: EKVX
CCRF-CEM = test system: CCRF-CEM
COLO 205 = test system: COLO 205
M19-MEL = test system: M19-MEL
HCC 2998 = test system: HCC 2998
SK-MEL-28 = test system: SK-MEL-28
KM-20L2 = test system: KM-20L2
TK-10 = test system: TK-10
SNB-78 = test system: SNB-78
SK-MEL-2 = test system: SK-MEL-2
NCI-H522 = test system: NCI-H522
UO-31 = test system: UO-31
A549 = test system: A549
786-0 = test system: 786-0
LXFL 529 = test system: LXFL 529
ACHN = test system: ACHN
HOP-62 = test system: HOP-62
RPMI-8226 = test system: RPMI-8226
MOLT-4 = test system: MOLT-4
CAKI-1 = test system: CAKI-1
UACC-62 = test system: UACC-62
OVCAR-3 = test system: OVCAR-3
HOP-92 = test system: HOP-92
HCT-15 = test system: HCT-15
U-251 = test system: U-251
NCI-H226 = test system: NCI-H226
HCT-116 = test system: HCT-116
DMS-273 = test system: DMS-273
SF-539 = test system: SF-539
SNB-75 = test system: SNB-75
IGROV-1 = test system: IGROV-1
RXF 631 = test system: RXF 631
HT-29 = test system: HT-29

CNC(=O)N(CCCCC(NC(C)=O)C(=O)NCc1ccccc1)Cc1ccccc1 (stereo unspecified)
GI50 (RXF 393): > 100 µM (inactive)
GI50 (SW-620): > 100 µM (inactive)
GI50 (A498): > 100 µM (inactive)
GI50 (SK-OV-3): > 100 µM (inactive)
GI50 (OVCAR-4): > 100 µM (inactive)
GI50 (M14): > 100 µM (inactive)
GI50 (XF498): > 100 µM (inactive)
GI50 (OVCAR-5): > 100 µM (inactive)
GI50 (SNB-19): > 100 µM (inactive)
GI50 (Malme-3M): > 100 µM (inactive)
GI50 (NCI-H23): > 100 µM (inactive)
GI50 (NCI-H460): > 100 µM (inactive)
GI50 (SF-295): > 100 µM (inactive)
GI50 (DMS-114): > 100 µM (inactive)
GI50 (SF-268): > 100 µM (inactive)
GI50 (DLD-1): > 100 µM (inactive)
GI50 (KM12): > 100 µM (inactive)
GI50 (SN12C): > 100 µM (inactive)
GI50 (SK-MEL-5): > 100 µM (inactive)
GI50 (UACC-257): > 100 µM (inactive)
GI50 (OVCAR-8): > 100 µM (inactive)
GI50 (LOX IMVI): > 100 µM (inactive)
GI50 (K562): > 100 µM (inactive)
GI50 (EKVX): > 100 µM (inactive)
GI50 (CCRF-CEM): > 100 µM (inactive)
GI50 (COLO 205): > 100 µM (inactive)
GI50 (M19-MEL): > 100 µM (inactive)
GI50 (HCC 2998): > 100 µM (inactive)
GI50 (SK-MEL-28): > 100 µM (inactive)
GI50 (KM-20L2): > 100 µM (inactive)
GI50 (TK-10): > 100 µM (inactive)
GI50 (SNB-78): > 100 µM (inactive)
GI50 (SK-MEL-2): > 100 µM (inactive)
GI50 (NCI-H522): > 100 µM (inactive)
GI50 (UO-31): > 100 µM (inactive)
GI50 (A549): > 100 µM (inactive)
GI50 (786-0): > 100 µM (inactive)
GI50 (LXFL 529): > 100 µM (inactive)
GI50 (ACHN): > 100 µM (inactive)
GI50 (HOP-62): > 100 µM (inactive)
GI50 (RPMI-8226): > 100 µM (inactive)
GI50 (MOLT-4): > 100 µM (inactive)
GI50 (CAKI-1): > 100 µM (inactive)
GI50 (UACC-62): > 100 µM (inactive)
GI50 (OVCAR-3): > 100 µM (inactive)
GI50 (HOP-92): > 100 µM (inactive)
GI50 (HCT-15): > 100 µM
GI50 (U-251): > 100 µM (inactive)
GI50 (NCI-H226): > 100 µM (inactive)
GI50 (HCT-116): > 100 µM (inactive)
GI50 (DMS-273): > 100 µM (inactive)
GI50 (SF-539): > 100 µM (inactive)
GI50 (SNB-75): > 100 µM (inactive)
GI50 (IGROV-1): > 100 µM (inactive)
GI50 (RXF 631): > 100 µM (inactive)
GI50 (HT-29): > 100 µM (inactive)
